{
  "source": "patent US6900216B2",
  "about": "“Dihydroimidazo[2,1-b]thiazole and dihydro-5h-thiazolo[3,2-A]pyrimidines as antidepressant agents” (Knoll GmbH, priority 2000, dated 2005)",
  "key": {"5-HT reuptake sites": {"molecular_target": "T1, 5-HT reuptake sites (Rattus norvegicus, UniProt P31652)", "T1 construct": "Frontal cortical tissue from the brains of male Charles River rats; from tissue; host or cells: rat frontal cortical membranes", "T1 sequence (P31652 whole entry)": "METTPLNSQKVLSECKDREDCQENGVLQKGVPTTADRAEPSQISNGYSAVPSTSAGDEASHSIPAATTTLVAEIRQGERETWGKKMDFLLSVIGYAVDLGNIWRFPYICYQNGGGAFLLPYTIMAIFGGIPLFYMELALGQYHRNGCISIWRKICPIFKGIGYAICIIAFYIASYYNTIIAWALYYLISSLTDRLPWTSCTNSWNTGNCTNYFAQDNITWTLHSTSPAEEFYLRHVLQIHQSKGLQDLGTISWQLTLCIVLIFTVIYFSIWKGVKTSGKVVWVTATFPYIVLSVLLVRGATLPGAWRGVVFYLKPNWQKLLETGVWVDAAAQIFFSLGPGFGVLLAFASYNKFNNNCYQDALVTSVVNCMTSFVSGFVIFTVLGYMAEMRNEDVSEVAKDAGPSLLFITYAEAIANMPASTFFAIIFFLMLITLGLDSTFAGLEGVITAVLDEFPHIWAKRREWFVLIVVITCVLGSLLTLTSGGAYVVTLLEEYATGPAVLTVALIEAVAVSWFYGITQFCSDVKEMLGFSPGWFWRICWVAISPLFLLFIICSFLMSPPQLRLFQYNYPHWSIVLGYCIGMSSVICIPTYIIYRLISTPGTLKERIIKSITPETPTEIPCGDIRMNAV", "test": "5-HT uptake: displacement of [3H]citalopram from 5-HT reuptake sites, rat frontal cortical membranes", "format": "binding", "details": "for inhibition at 1 µM: 10^−6 M test compound, single determination, [3H]citalopram; for Ki: [3H]citalopram 1.3 nM, rat frontal cortical membranes, fit to data from three experiments", "procedure": "Frontal cortical tissue from the brains of male Charles River rats weighing 150-250 g was homogenised in ice-cold 50 mM Tris-HCl, pH 7.4 (when measured at 25° C.) containing 120 mM sodium chloride and 5 mM potassium chloride (Tris buffer; 1:30 w/v) and centrifuged at 40,000 g for 10 minutes. The supernatant was discarded and the pellet rehomogenised in Tris buffer, 1:60 w/v, and centrifuged at 40,000 g for 10 minutes. This step was repeated a further time. The final pellet was resuspended in 50 mM Tris-HCl, pH 7.4 containing 120 mM sodium chloride and 5 mM potassium chloride (equivalent to 3.125 mg wet weight of tissue/ml) and used immediately in the binding assay. All centrifugations were performed at 4° C.\nMembranes (400 μl; equivalent to 1.25 mg wet weight of tissue/tube) were incubated with 50 μl [^3H]citalopram at a single concentration of 1.3 nM and 50 μl of distilled water (total binding) or 50 μl of test compound (at a single concentration of 10^−6 M or at 10 concentrations ranging from 10^−11-10^−3 M) or 50 μl of paroxetine (0.5 μM; non-specific binding) for 1 h at 27° C. Membrane bound radioactivity was recovered by filtration under vacuum through Skatron 11734 filters presoaked in 0.5% PEI using a Skatron Cell Harvester. Filters were then washed in ice-cold 50 mM Tris-HCl buffer, pH 7.4 (at 25° C., wash setting 9,9,0). The scored filter paper discs were punched out into vials, scintillation fluid added and radioactivity determined by liquid scintillation counting.\n(§1) For each of these tests measuring the ability of compounds of Formula I to displace standard ligands from 5-HT1A receptors and 5-hydroxytryptamine (5-HT) and noradrenaline (NA) reuptake sites and muscarinic receptors in vitro, the percentage displacement of specific binding of tritiated ligand by 10^−6 M test compound was calculated in the following way.\n(§2) Firstly, specific binding of tritiated ligand in the absence (A) and presence (B) of test compound was determined:\n(§3) In the absence of compound: A(dpm)=Total binding (dpm)−Non-specific binding (dpm) In the presence of compound (10^−6 M): B(dpm)=Binding at 10^−6M (dpm)−Non-specific binding (dpm)\n(§4) The specific binding of tritiated ligand in the presence (B) of compound was then converted to a percentage of specific binding of tritiated ligand in the absence (A) of compound: % Specific binding at 10^−6 M=B(dpm)/A(dpm)×100\n(§5) The percentage displacement of specific binding of tritiated ligand by the test compound (10^−6 M) was then obtained by subtraction of the percentage specific binding in the presence of compound from the percentage specific binding in the absence of compound, which is taken as the maximum binding and so equals 100%:\n(§6) % Displacement at 10^−6 M=100−% Specific binding at 10^−6 M.\n(§7) In some cases, displacement curves were then produced for compounds which displaced ≧50% of specific binding of the tritiated ligand at 10^−6 M using a range of concentrations of the compound. The Ki was then calculated by simultaneous fitting using equations derived from the Feldman equations by robust non-linear regression to data from three experiments simultaneously (De Lean et al., 1978; Munson and Rodbard, 1980; Feldman, 1992). Munson P J and Rodbard D. Ligand: a versatile computerised approach for characterisation of ligand binding systems. Anal Biochem 1980; 107: 220. Feldman HA. Mathematical theory of complex ligand binding systems at equilibrium: some methods for parameter fitting. Anal Biochem 1992: 48, 317. De Lean A, Munson P J and Rodbard D. Simultaneous analysis of families of sigmoidal curves: application to bioassay, radioligand assay, and physiological dose-response curves. Am J Physiol 1978: 235 (2), E97-E102.\nThe results obtained in the above tests for 5-HT1A binding and 5-HT and NA uptake and muscarinic binding for the final products of Examples 1-39 hereinafter are given in Table 1 below. Kis are in nM. % Figures are for % displacement at 10^−6 M for a single determination."}, "[1]": {"molecular_target": "T2, noradrenaline (NA) reuptake sites (Rattus norvegicus, UniProt Q63380)", "T2 construct": "Frontal cortical tissue from the brains of male Charles River rats; from tissue; host or cells: rat frontal cortical membranes", "T2 sequence (Q63380 1-617)": "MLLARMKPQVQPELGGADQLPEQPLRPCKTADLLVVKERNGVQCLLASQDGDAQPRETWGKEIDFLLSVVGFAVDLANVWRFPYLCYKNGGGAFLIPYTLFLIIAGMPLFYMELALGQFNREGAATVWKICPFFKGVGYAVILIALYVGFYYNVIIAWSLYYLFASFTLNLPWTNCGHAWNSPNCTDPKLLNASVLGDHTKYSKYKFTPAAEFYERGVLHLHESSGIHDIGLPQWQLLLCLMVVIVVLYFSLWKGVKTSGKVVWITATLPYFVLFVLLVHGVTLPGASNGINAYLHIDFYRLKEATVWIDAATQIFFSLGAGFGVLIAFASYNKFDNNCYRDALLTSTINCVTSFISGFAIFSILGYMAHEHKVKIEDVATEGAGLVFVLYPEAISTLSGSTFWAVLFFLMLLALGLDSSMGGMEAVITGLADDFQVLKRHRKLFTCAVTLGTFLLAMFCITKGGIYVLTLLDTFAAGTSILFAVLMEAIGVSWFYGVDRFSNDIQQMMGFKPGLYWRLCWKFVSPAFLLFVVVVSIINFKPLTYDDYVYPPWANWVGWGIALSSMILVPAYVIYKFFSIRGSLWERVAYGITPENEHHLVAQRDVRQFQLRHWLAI", "test": "NA uptake: displacement of [3H]nisoxetine from noradrenaline reuptake sites, rat frontal cortical membranes", "format": "binding", "details": "for inhibition at 1 µM: read-out: NA uptake % displacement at 10^−6 M; for Ki: [3H]nisoxetine 0.6 nM, rat frontal cortical membranes, fit to data from three experiments", "procedure": "Frontal cortical tissue from the brains of male Charles River rats weighing 150-250 g was homogenised in ice-cold 50 mM Tris-HCl, pH 7.4 (at 25° C.) containing 120 mM sodium chloride and 5 mM potassium chloride (Tris buffer; 1:60 w/v) using a Kinematic polytron (speed setting 6 for 10 seconds) and centrifuged at 40,000 g for 10 minutes. The supernatant was discarded and the pellet rehomogenised in Tris buffer, 1:60 w/v, and centrifuged at 40,000 g for 10 minutes. This step was repeated twice more so that, in total, the brain tissue was homogenised and centrifuged four times. The final pellet was resuspended in 50 mM Tris-HCl, pH 7.4 containing 300 mM sodium chloride and 5 mM potassium chloride (equivalent to 18.75 mg wet weight of tissue/ml) and used immediately in the binding assay. All centrifugations were performed at 4° C.\nMembranes (400 μl; equivalent to 7.5 mg wet weight of tissue/tube) were incubated with 50 μl [^3H]nisoxetine at a single concentration of 0.6 nM and 50 μl of distilled water (total binding) or 50 μl^− of test compound (at a single concentration 10^−6M or at 10 concentrations ranging from 10^−11-10^−3 M) or 50 μl of mazindol (1 μM; non-specific binding) for 4 h at 4° C. Membrane bound radioactivity was recovered by filtration under vacuum through Skatron 11734 filters using a Skatron cell harvester. Filters were rapidly washed with ice-cold 50 mM Tris-HCl, pH 7.4 containing 120 mM sodium chloride and 5 mM potassium chloride (wash setting 9,9,0). The scored filter paper discs were punched out into vials, scintillation fluid added and radioactivity determined by liquid scintillation counting.\nas §1, §2, §3, §4, §5, §6\nas §7, with “E97-E102. […]” for “E97-E102.”"}},
  "data": [
    {"smiles": "Br.CC1=C(c2cc3c(Cl)cccc3s2)N2CCCN=C2S1", "note": "[Example 17, 3-(4-chlorobenzo[b]thiophen-2-yl)-2-methyl-6,7-dihydro-5H-thiazolo[3,2-a]pyrimidine hydrobromide]", "values": [
      {"measurement": "inhibition at 1 µM", "setting": "5-HT reuptake sites", "result": 84, "unit": "%"},
      {"measurement": "inhibition at 1 µM", "setting": "[1]", "result": 84, "unit": "%"},
      {"measurement": "melting point", "result": "236 to 238", "unit": "°C"}
    ]},
    {"smiles": "Br.CCC1=C(c2cc3c(Cl)cccc3s2)N2CCN=C2S1", "note": "[Example 18, 3-(4-chlorobenzo[b]thiophen-2-yl)-2-ethyl-5,6-dihydroimidazo[2,1-b]thiazole hydrobromide]", "values": [
      {"measurement": "inhibition at 1 µM", "setting": "5-HT reuptake sites", "result": 96, "unit": "%"},
      {"measurement": "Ki", "setting": "[1]", "result": 29.5, "unit": "nM"},
      {"measurement": "melting point", "result": "187 to 189", "unit": "°C"}
    ]},
    {"smiles": "CSC1=C(c2cc3ccccc3s2)N2CCN=C2S1", "note": "[Example 19, 3-(benzo[b]thiophen-2-yl)-2-(methylthio)-5,6-dihydroimidazo[2,1-b]thiazole]", "values": [
      {"measurement": "Ki", "setting": "5-HT reuptake sites", "result": 39, "unit": "nM"},
      {"measurement": "Ki", "setting": "[1]", "result": 5.3, "unit": "nM"},
      {"measurement": "melting point", "result": "95 to 97", "unit": "°C"}
    ]},
    {"smiles": "Br.CC1=C(c2cc3cccc(Cl)c3s2)N2CCN=C2S1", "note": "[Example 20, 3-(7-chlorobenzo[b]thiophen-2-yl)-2-methyl-5,6-dihydroimidazo[2,1-b]thiazole hydrobromide]", "values": [
      {"measurement": "inhibition at 1 µM", "setting": "5-HT reuptake sites", "result": 73, "unit": "%"},
      {"measurement": "inhibition at 1 µM", "setting": "[1]", "result": 47, "unit": "%"},
      {"measurement": "melting point", "result": "294 to 295", "unit": "°C"}
    ]},
    {"smiles": "Br.CC1=C(c2ccc3sccc3c2)N2CCN=C2S1", "note": "[Example 21, 3-(benzo[b]thiophen-5-yl)-2-methyl-5,6-dihydroimidazo[2,1-b]thiazole hydrobromide]", "values": [
      {"measurement": "Ki", "setting": "5-HT reuptake sites", "result": 92, "unit": "nM"},
      {"measurement": "Ki", "setting": "[1]", "result": 5.5, "unit": "nM"},
      {"measurement": "melting point", "result": 285, "unit": "°C"}
    ]},
    {"smiles": "CSC1=C(c2cccc3sccc23)N2CCN=C2S1.Cl", "note": "[Example 22, 3-(benzo[b]thiophen-4-yl)-2-(methylthio)-5,6-dihydroimidazo[2,1-b]thiazole hydrochloride]", "values": [
      {"measurement": "Ki", "setting": "5-HT reuptake sites", "result": 85, "unit": "nM"},
      {"measurement": "Ki", "setting": "[1]", "result": 1.5, "unit": "nM"},
      {"measurement": "melting point", "result": "95 to 105", "unit": "°C"}
    ]},
    {"smiles": "CC1=C(c2cccc3ccsc23)N2CCN=C2S1.Cl", "note": "[Example 23, 3-(benzo[b]thiophen-7-yl)-2-methyl-5,6-dihydroimidazo[2,1-b]thiazole hydrochloride]", "values": [
      {"measurement": "Ki", "setting": "5-HT reuptake sites", "result": 229, "unit": "nM"},
      {"measurement": "Ki", "setting": "[1]", "result": 4, "unit": "nM"},
      {"measurement": "melting point", "result": "210 to 212", "unit": "°C"}
    ]},
    {"smiles": "Br.CC1=C(c2cc3c(Cl)c(Cl)ccc3s2)N2CCN=C2S1", "note": "[Example 24, 3-(4,5-dichlorobenzo[b]thiophen-2-yl)-2-methyl-5,6-dihydroimidazo[2,1-b]-thiazole hydrobromide]", "values": [
      {"measurement": "inhibition at 1 µM", "setting": "5-HT reuptake sites", "result": 97, "unit": "%"},
      {"measurement": "inhibition at 1 µM", "setting": "[1]", "result": 39, "unit": "%"},
      {"measurement": "melting point", "result": "244 to 246", "unit": "°C"}
    ]},
    {"smiles": "CCC1=C(c2cccc3sccc23)N2CCN=C2S1.O=C(O)/C=C/C(=O)O", "note": "[Example 25, 3-(benzo[b]thiophen-4-yl)-2-ethyl-5,6-dihydroimidazo[2,1-b]thiazole fumarate]", "values": [
      {"measurement": "Ki", "setting": "5-HT reuptake sites", "result": 169, "unit": "nM"},
      {"measurement": "Ki", "setting": "[1]", "result": 5.4, "unit": "nM"},
      {"measurement": "melting point", "result": "171 to 173", "unit": "°C"}
    ]},
    {"smiles": "Br.COc1cccc2cc(C3=C(C)SC4=NCCN43)sc12", "note": "[Example 26, 3-(7-methoxybenzo[b]thiophen-2-yl)-2-methyl-5,6-dihydroimidazo[2,1-b]thiazole hydrobromide]", "values": [
      {"measurement": "inhibition at 1 µM", "setting": "5-HT reuptake sites", "result": 64, "unit": "%"},
      {"measurement": "inhibition at 1 µM", "setting": "[1]", "result": -3, "unit": "%"},
      {"measurement": "melting point", "result": "270 to 272", "unit": "°C"}
    ]},
    {"smiles": "OCC1=C(c2ccc3sccc3c2)N2CCN=C2S1", "note": "[Example 28, [3-(benzo[b]thiophen-5-yl)-5,6-dihydroimidazo[2,1-b]-thiazol-2-yl]methanol]", "values": [
      {"measurement": "Ki", "setting": "5-HT reuptake sites", "result": 148, "unit": "nM"},
      {"measurement": "Ki", "setting": "[1]", "result": 5.4, "unit": "nM"},
      {"measurement": "melting point", "result": "149 to 150", "unit": "°C"}
    ]},
    {"smiles": "CCC1=C(c2ccc3sccc3c2)N2CCN=C2S1.O=C(O)/C=C/C(=O)O", "note": "[Example 31, 3-(benzo[b]thiophen-5-yl)-2-ethyl-5,6-dihydroimidazo[2,1-b]thiazole fumarate]", "values": [
      {"measurement": "Ki", "setting": "5-HT reuptake sites", "result": 35, "unit": "nM"},
      {"measurement": "Ki", "setting": "[1]", "result": 4.3, "unit": "nM"},
      {"measurement": "melting point", "result": "145 to 150", "unit": "°C"}
    ]},
    {"smiles": "CSC1=C(c2cccc3sccc23)N2CCN=C2S1.O=C(O)/C=C/C(=O)O", "note": "[Example 32, 3-(benzo[b]thiophen-4-yl)-2-(methylthio)-5,6-dihydroimidazo[2,1-b]thiazole fumarate]", "values": [
      {"measurement": "Ki", "setting": "5-HT reuptake sites", "result": 223, "unit": "nM"},
      {"measurement": "Ki", "setting": "[1]", "result": 3.5, "unit": "nM"},
      {"measurement": "melting point", "result": "185 to 187", "unit": "°C"}
    ]}
  ]
}
